Test results published in ChEMBL document CHEMBL4330141, “Synthesis and evaluation of novel substituted 1,2,3-triazolyldihydroquinolines as promising antitubercular agents” (Bioorg Med Chem Lett, 2019).
In brackets after ≈: the same amount, converted by molar mass.

What was measured:
[1] = test system: Mycobacterium tuberculosis; test: Antitubercular activity against Mycobacterium tuberculosis H37Rv measured after 1 week by microplate alamar blue assay; assay type: functional; conditions: 168 h
[2] = Protective index, ratio of MNTD50 for HEK293T cells to MIC for Mycobacterium tuberculosis H37Rv
[3] = test system: HEK-293T; test: Cytotoxicity against HEK293T cells after 48 hrs by MTT assay; assay type: cell-based; conditions: human

Row | Structure (SMILES) | MIC [1] [µg/mL] | Ratio [2] | MNTD50 [3] [µg/mL]
1 | Fc1ccc(Cn2cc(C3=C(Cl)c4ccc(-c5cccs5)nc4CC3)nn2)c(Cl)c1 | 25 (≈ 54.7 µM) | – | –
2 | N#CC1=C(Cl)c2ccc(-c3cccs3)nc2CC1 | 25 (≈ 91.7 µM) | – | –
3 | O=[N+]([O-])c1ccc(Cn2cc(C3=C(Cl)c4ccc(-c5cccs5)nc4CC3)nn2)cc1 | 12.5 (≈ 27.8 µM) | 5.52 | 69
4 | O=C(O)c1cn(C2CC2)c2cc(N3CCNCC3)c(F)cc2c1=O [CIPROFLOXACIN] | 1.56 (≈ 4.71 µM) | – | –
5 | CC[C@@H](CO)NCCN[C@@H](CC)CO [ETHAMBUTOL] | 3.13 (≈ 15.3 µM) | – | –
6 | Cc1ccc(Cn2cc(C3=C(Cl)c4ccc(-c5cccs5)nc4CC3)nn2)cc1 | 25 (≈ 59.7 µM) | – | –
7 | ClC1=C(c2cn(Cc3ccccc3)nn2)CCc2nc(-c3cccs3)ccc21 | 1.56 (≈ 3.85 µM) | 71.7 | 112
8 | ClC1=C(c2cn(Cc3ccc(Br)cc3)nn2)CCc2nc(-c3cccs3)ccc21 | 3.12 (≈ 6.45 µM) | 28.02 | 88
9 | COc1cccc(Cn2cc(C3=C(Cl)c4ccc(-c5cccs5)nc4CC3)nn2)c1 | 3.12 (≈ 7.17 µM) | 31.4 | 98
10 | NNC(=O)c1ccncc1 [ISONIAZID] | 0.1 (≈ 0.729 µM) | – | 32
11 | COc1cc(Cn2cc(C3=C(Cl)c4ccc(-c5cccs5)nc4CC3)nn2)cc(OC)c1OC | 12.5 (≈ 25.3 µM) | 5.92 | 74
12 | Fc1cc(Br)ccc1Cn1cc(C2=C(Cl)c3ccc(-c4cccs4)nc3CC2)nn1 | 25 (≈ 49.8 µM) | – | –
13 | Fc1ccc(Cn2cc(C3=C(Cl)c4ccc(-c5cccs5)nc4CC3)nn2)cc1 | 25 (≈ 59.1 µM) | – | –
14 | ClC1=C(c2cn(Cc3cccc(Br)c3)nn2)CCc2nc(-c3cccs3)ccc21 | 25 (≈ 51.7 µM) | – | –
15 | COc1ccc(Cn2cc(C3=C(Cl)c4ccc(-c5cccs5)nc4CC3)nn2)cc1 | 25 (≈ 57.5 µM) | – | –
16 | Cc1cc(C)c(Cn2cc(C3=C(Cl)c4ccc(-c5cccs5)nc4CC3)nn2)c(C)c1 | 25 (≈ 55.9 µM) | – | –
17 | CCc1ccc(Cn2cc(C3=C(Cl)c4ccc(-c5cccs5)nc4CC3)nn2)cc1 | 25 (≈ 57.7 µM) | – | –
18 | CO[C@H]1/C=C/O[C@@]2(C)Oc3c(C)c(O)c4c(O)c(c(/C=N/N5CCN(C)CC5)c(O)c4c3C2=O)NC(=O)/C(C)=C\C=C\[C@H](C)[C@H](O)[C@@H](C)[C@@H](O)[C@@H](C)[C@H](OC(C)=O)[C@@H]1C [RIFAMPIN] | 0.2 (≈ 0.243 µM) | – | –
19 | FC(F)(F)c1ccc(Cn2cc(C3=C(Cl)c4ccc(-c5cccs5)nc4CC3)nn2)cc1 | 6.25 (≈ 13.2 µM) | 13.76 | 86
20 | ClC1=C(c2cn(Cc3ccc(Cl)c(Cl)c3)nn2)CCc2nc(-c3cccs3)ccc21 | 25 (≈ 52.8 µM) | – | –
